Like-named read-outs stand apart in the source and are kept apart here.
How the values were obtained:
Assay in all cases: TMA inhibition in bacterial whole cells (LC–MS/MS of d9-TMA from d9-choline)
[1] = test system: Anaerococcus hydrogenalis DSM 7454; assay type: cell-based; details: 1 mM d9-choline in PBS, 75 min, 37°C, anaerobic
Method: (§1) For TMA inhibition assays, E. coli and P. mirabilis were grown in NCE medium supplemented with 20 mM choline chloride, A. hydrogenalis was grown in MEGA medium supplemented with 3 mM choline chloride, and C. sporogenes was grown in BHI medium supplemented with 20 mM of choline chloride to induce expression of the cut gene cluster. For MIC assays, all bacteria strains were grown in MEGA medium.
(§2) Compounds were stored as 10 mM DMSO stocks at –20°C and diluted in DMSO to prepare varying concentrations of inhibitors for testing. Bacteria were grown anaerobically overnight in media supplemented with choline as described above. Cells were pelleted and resuspended in PBS, and d9-choline chloride was added to a final concentration of 1 mM. The final OD600 of the PBS cell resuspensions is as follows: 0.4 (E. coli), 0.15–0.2 (P. mirabilis), 0.2 (C. sporogenes), and 0.4 (A. hydrogenalis). The resuspended cells were added to 96-well plates containing inhibitors (final concentration of 1% DMSO, with final inhibitor concentrations ranging between 0 and 325 µM). The plates were sealed and incubated for 75 min (or 90 min for P. mirabilis) at 37°C. Following incubation, the plates were removed from the anaerobic chamber and analyzed immediately or kept at –20°C until LC–MS/MS analysis. Each inhibitor concentration was tested in triplicate. EC50 values were calculated with GraphPad Prism by fitting the log(inhibitor) vs response—Variable slope (four-parameter) model for non-linear regression.
(§3) Samples were kept frozen until analysis and kept cold on ice during handling due to the volatility of TMA. Bacterial cell resuspensions in PBS were diluted 100-fold in LCMS-grade acetonitrile with 0.1% formic acid to lyse cells, precipitate proteins, and extract metabolites. Samples were centrifuged at 4,000 rpm for 10 min at 4°C to pellet proteins. The supernatants were then further diluted 20-fold in LCMS-grade acetonitrile with 0.1% formic acid, and the resulting solution was analyzed by LC–MS/MS.
(§4) LC–MS/MS analysis was performed on an Agilent 1290/6470 Triple Quadrupole LC–MS instrument (Agilent Technologies) using electrospray ionization. The mass spectrometer was operated in multiple reaction monitoring (MRM) mode with positive ionization monitoring. The precursor–product ion pairs used in MRM mode were as follows: m/z 69.1m/z → 49.1 (d9-TMA) and m/z 113.2 m/z → 69.1 (d9-choline). The capillary voltage was set to 4.0 kV, and the fragmentor voltage was set to 30 V (d9-TMA) and 115 V (d9-choline). The collision energy for the precursor–product ion pairs was set to 29 V (d9-TMA) and 21 V (d9-choline). MS^1 resolution was set to wide and MS^2 resolution to unit. The drying gas temperature was maintained at 250°C, with a flow rate of 11 L/min and a nebulizer pressure of 45 psi. The time filter width used was 0.07 min. The injection volume of all samples was 1 μL. Samples were injected onto InfinityLab Poroshell 120 (Agilent) HILIC columns (2.7 μm, 100 mm × 2.1 mm, 100 Å) preceded by InfinityLab Poroshell 120 HILIC guard columns (2.1 mm, 1.9µm UHPLC guard). The LC conditions on the binary pump were as follows: a gradient of 5–35% A increasing over 1.95 min (1.2 mL/min), a gradient of 35–5% A decreasing over 0.05 min (1.6 mL/min), and held at 5% A for 0.5 min (2 mL/min). […] Solvent A was 10 mM ammonium formate with 0.1% formic acid, and solvent B was acetonitrile with 0.1% formic acid. Data analysis was performed with Mass Hunter Workstation Data Acquisition and Qualitative Analysis software (Agilent Technologies).

[2] = test system: Proteus mirabilis ATCC 29906; assay type: cell-based; details: 1 mM d9-choline in PBS, 90 min, 37°C, anaerobic; for EC50: read-out: EC50 in whole cells, P. mirabilis (TMA inhibition)
Method: as §1, §2, §3, §4

[3] = test system: Clostridium sporogenes ATCC 15579; assay type: cell-based; details: 1 mM d9-choline in PBS, 75 min, 37°C, anaerobic
Method: as §1, §2, §3, §4

E. coli MS 200-1 = assay type: cell-based, Escherichia coli MS 200-1
Method: as §1, §2, §3, §4

[4] = Anaerococcus hydrogenalis, DSM7454, 1.25 h
[5] = Proteus mirabilis, ATCC29906, 1.5 h
[6] = Clostridium sporogenes, ATCC15579, 1.25 h
[7] = Escherichia coli, MS2001, 1.25 h, 1 mM d9-choline in PBS, 75 min, 37°C, anaerobic
[8] = 1 mM d9-choline in PBS, 75 min, 37°C, anaerobic

Cc1ccc(-c2cc(C(=O)NCCCN3CCCCCC3)c(C)[nH]2)cc1C [C00016]
EC50 [1, 4]: 43 µM | EC50 [2, 5]: 40 µM | EC50 [3, 6]: 104 µM | EC50 (E. coli MS 200-1; [7]): 2 µM

C#CCn1c(-c2ccc(C)c(C)c2)cc(C(=O)NCCCN2CCC(C)CC2)c1C [Compound 16]
EC50 [3]: 5 µM | EC50 (E. coli MS 200-1; [8]): 39 µM

Cc1[nH]c(C2CCCCC2)cc1C(=O)NCCCN1CCC(C)CC1 [Compound 21]
EC50 [1]: 32 µM | EC50 [3]: 8 µM | EC50 (E. coli MS 200-1; [8]): 51 µM

Cc1ccc(-c2ccc(C(=O)NCCCN3CCC(C)CC3)[nH]2)cc1C [Compound 10]
EC50 [2]: 63 µM | EC50 [3]: 312 µM | EC50 (E. coli MS 200-1; [8]): 98 µM

Cc1ccc(-c2cc(C(=O)NCCCN3CCN(C)C(=O)C3)c(C)[nH]2)cc1C [C00013]
EC50 in whole cells, P. mirabilis (TMA inhibition) [2]: No inhibition at 312 | EC50 [3, 6]: > 312 µM | EC50 (E. coli MS 200-1; [7]): > 125 µM

Cc1ccc(-c2cc(C(=O)NCCCN3CCC(C)CC3)c(C)o2)cc1C [Compound 12]
EC50 [1]: 54 µM | EC50 [2]: > 312 µM | EC50 (E. coli MS 200-1; [8]): 15 µM

Cc1[nH]c(-c2ccccc2)cc1C(=O)NCCCN1CCC(C)CC1 [Compound 22]
EC50 [1]: 24 µM | EC50 [2]: 157 µM | EC50 [3]: 147 µM | EC50 (E. coli MS 200-1; [8]): 7 µM

Cc1ccc(-c2cc(C(=O)NCCCN3CCOCC3)c(C)[nH]2)cc1C [C00011]
EC50 in whole cells, P. mirabilis (TMA inhibition) [2]: No inhibition at 312 | EC50 in whole cells, C. sporogenes (TMA inhibition) [3]: No inhibition at 312 | EC50 (E. coli MS 200-1; [7]): > 125 µM

Cc1ccc(-c2cc(C(=O)NCCCN3CCCC3)c(C)[nH]2)cc1C [C00014]
EC50 [1, 4]: 83 µM | EC50 [2, 5]: 104 µM | EC50 [3, 6]: 78 µM | EC50 (E. coli MS 200-1; [7]): 11 µM

Cc1ccc(-c2[nH]cc(C(=O)NCCCN3CCC(C)CC3)c2C)cc1C [Compound 8]
EC50 [2]: 131 µM | EC50 [3]: 97 µM | EC50 (E. coli MS 200-1; [8]): > 125 µM | Fold increase of EC50 in E. coli (E. coli MS 200-1; compared with compound 6): more than 10 fold

Cc1ccc(-c2cc(C(=O)NCCCN3CCC(C)CC3)c(C)[nH]2)cc1 [Compound 24]
EC50 [2]: 131 µM | EC50 (E. coli MS 200-1; [8]): 92 µM

Cc1ccc(-c2cc(C(=O)NCCCN3CCCCC3)c(C)[nH]2)cc1C [C00015]
EC50 [1, 4]: 244 µM | EC50 [2, 5]: 193 µM | EC50 [3, 6]: 267 µM | EC50 (E. coli MS 200-1; [7]): 10 µM

Cc1ccc(-c2cc(C(=O)NCCCN3CCC(C)CC3)c(C)[nH]2)cc1C [C00002]
EC50 (E. coli MS 200-1; [7]): 9 µM

Cc1ccc(-c2cc(C(=O)NCCCCN3CCC(C)CC3)c(C)[nH]2)cc1C [C00004]
EC50 [1, 4]: 27 µM | EC50 [2, 5]: 35 µM | EC50 [3, 6]: 138 µM | EC50 (E. coli MS 200-1; [7]): 5 µM

Cc1ccc(-c2cc(C(=O)NCCCN3CCCCCCC3)c(C)[nH]2)cc1C [C00017]
EC50 [1, 4]: 28 µM | EC50 [2, 5]: 28 µM | EC50 [3, 6]: 40 µM | EC50 (E. coli MS 200-1; [7]): 3 µM

Cc1ccc(-c2cc(C(=O)NCCCCCN3CCCCCC3)c(C)[nH]2)cc1C [C00019]
EC50 (E. coli MS 200-1; [7]): 2 µM

CCCN(CCC)CCNC(=O)c1cc(-c2ccc(C)c(C)c2)[nH]c1C [C00010]
EC50 [2, 5]: > 312 µM | EC50 [3, 6]: > 312 µM | EC50 (E. coli MS 200-1; [7]): 200 µM

Cc1ccc(-c2cc(C(=O)NCCCN3CCC(C)CC3)cn2C)cc1C [Compound 15]
EC50 [2]: 98 µM | EC50 (E. coli MS 200-1; [8]): 21 µM

Cc1ccc(-c2cc(C(=O)NCCN)c(C)[nH]2)cc1C [C00008]
EC50 in whole cells, P. mirabilis (TMA inhibition) [2]: No inhibition at 312 | EC50 in whole cells, C. sporogenes (TMA inhibition) [3]: No inhibition at 312 | EC50 (E. coli MS 200-1; [7]): 140 µM

Cc1ccc(-c2cc(C(=O)NCCCCCN3CCC(C)CC3)c(C)[nH]2)cc1C [C00005]
EC50 [1, 4]: 33 µM | EC50 [2, 5]: 66 µM | EC50 [3, 6]: 84 µM | EC50 (E. coli MS 200-1; [7]): 11 µM

Cc1ccc(-c2cc(C(=O)NCCCN3CCN(C)CC3)c(C)[nH]2)cc1C [C00012]
EC50 in whole cells, A. hydrogenalis (TMA inhibition) [1]: No inhibition at 312 | EC50 [2, 5]: 58 µM | EC50 [3, 6]: 92 µM | EC50 (E. coli MS 200-1; [7]): 14 µM

CCc1[nH]c(-c2ccc(C)c(C)c2)cc1C(=O)NCCCN1CCC(C)CC1 [Compound 9]
EC50 [3]: 103 µM | EC50 (E. coli MS 200-1; [8]): 35 µM

Cc1ccc(-c2cc(C(=O)NCCCN3CCC(C)CC3)c(C)n2-c2ccccc2)cc1C [Compound 18]
EC50 [3]: 3 µM | EC50 (E. coli MS 200-1; [8]): 489 µM

Cc1ccc(-c2cc(C(=O)NCCC3=CCCCC3)c(C)[nH]2)cc1C [C00006]
EC50 in whole cells, C. sporogenes (TMA inhibition) [3]: No inhibition at 100 | EC50 (E. coli MS 200-1; [7]): > 100 µM

Cc1ccc(-c2ncc(C(=O)NCCCN3CCC(C)CC3)s2)cc1C [Compound 14]
EC50 [2]: 197 µM | EC50 [3]: 215 µM | EC50 (E. coli MS 200-1; [8]): 27 µM

Cc1ccc(-c2cc(C(=O)NCCCCN3CCCCCC3)c(C)[nH]2)cc1C [C00018]
EC50 [1, 4]: 7 µM | EC50 [2, 5]: 33 µM | EC50 [3, 6]: 68 µM | EC50 (E. coli MS 200-1; [7]): 8 µM

CCCNCCNC(=O)c1cc(-c2ccc(C)c(C)c2)[nH]c1C [C00009]
EC50 [2, 5]: > 312 µM | EC50 [3, 6]: > 312 µM | EC50 (E. coli MS 200-1; [7]): 60 µM

COCCNC(=O)c1cc(-c2ccc(C)c(C)c2)[nH]c1C [C00007]
EC50 in whole cells, C. sporogenes (TMA inhibition) [3]: No inhibition at 100 | EC50 in whole cells, E. coli (TMA inhibition) (E. coli MS 200-1; [8]): No inhibition at 100

Cc1cc(C)cc(-c2cc(C(=O)NCCCN3CCC(C)CC3)c(C)[nH]2)c1 [Compound 25]
EC50 [1]: 19 µM | EC50 [2]: 28 µM | EC50 [3]: 133 µM | EC50 (E. coli MS 200-1; [8]): 6 µM

Cc1ccc(-c2cc(C(=O)NCCCN3CCC(C)CC3)cs2)cc1C [Compound 13]
EC50 [2]: 50 µM | EC50 [3]: 85 µM | EC50 (E. coli MS 200-1; [8]): 14 µM

Cc1ccc(-c2c[nH]c(C(=O)NCCCN3CCC(C)CC3)c2)cc1C [Compound 11]
EC50 [2]: 42 µM | EC50 [3]: > 312 µM | EC50 (E. coli MS 200-1; [8]): 13 µM

Cc1ccc(-c2cc(C(=O)NCCN3CCC(C)CC3)c(C)[nH]2)cc1C [C00003]
EC50 [1, 4]: 176 µM | EC50 [2, 5]: 64 µM | EC50 [3, 6]: 213 µM | EC50 (E. coli MS 200-1; [7]): 7 µM

Cc1ccc(-c2cc(C(=O)NCCCN3CCC(C)CC3)c(C)n2C2CCCC2)cc1C [Compound 17]
EC50 [3]: 8 µM | EC50 (E. coli MS 200-1; [8]): 69 µM
